“Also recorded” adds a separate entry of the source.
Tested on: mung bean hypocotyl cuttings
Test: Comparative mung bean bioassay: rooting response of stem cuttings versus seaweed products and IAA/IBA standards (Example 6)
Assay type: in vivo
Details: for pH: 30 mg/L; for stem growth, length: 1% dilution; for concentration with the higher number of roots developed: range 0 to 30 mg/L
Excerpt: A composition comparative study further embodiment described in detail in Example 6. to determine the concertation of Auxins in relation to Standard indole-3-Butiric acid (IBA) and indole-3-acetic (IAA) embodied in the examples Duckweed Biotech product is a combination of three aquatic plants of the Aracea family, which is compared with commercial seaweed products: Product (1) “K” and Product (2) “M”. The dilutions were made from the liquid concentrated products and the Duckweed Biotech from a natural concentrate extraction of three duckweed species. The equivalent phytohormone activity of IAA and IBA was established by the number of roots to the corresponding treatment dilution and interpolating the number of roots to the corresponding hormone concentration to obtain the total activity in mg/L of the commercial product.
Two commercial giant brown kelp seaweed products, Product (1) “K” made of Ecklonia maxima and Product (2) “M” made of Ascophyllum nodosum were compared with the Duckweed Biotech Product “D” made of a combination of Duckweed aquatic plants of the Araceae family of plants formally known as Lemnaceae family of plants. For the test, a series of dilutions from 0% to 50% were made from the concentrated commercial products.
The preparation of standards was performed using a concentration range of 0, 1, 2, 5, 10, 15, 20 and 30 mg/L of indole-3-butyric acid (IBA) and indole-3-acetic acid (IAA) as shown in Table 20. A dose growth response curve for rooting ability was produced using these auxins.
The mung bean bioassay was used to evaluate plant growth and rooting stimulation response of three products: Duckweed Biotech Product “D”, Product (1) “K” and Product (2) “M”.
The seeds of mung bean seeds were rinse thoroughly with water and soak for […]. in DI water. 2. The seeds were planted in microgreen trays for germination process at 26° C. After 8 days, uniform hypocotyl cuttings with 8 cm length with 2 primary leaves and without cotyledon were transferred to the treatment vials. The cuttings are rinsed with DI water and then soak in 20 mL treatment test solutions for 8 hr. The treatment solutions include Duckweed Biotech Product “D”, Product (1) “K”, Product (2) “M”, indole-3-acetic acid (IAA), and indole-3-butyric acid (IBA). The treatments are follows: • IBA & IAA concentrations: 0, 1, 2, 5, 10, 15, 20 and 30 mg/L • Duckweed Biotech Product “D” Conc.: 0, 0.5, 1, 2, 5, 10, 20 and 50% • Product (1) “K” Conc.: 0, 0.5, 1, 2, 5, 10, 20 and 50% • Product (2) “M” Conc.: 0, 0.5, 1, 2, 5, 10, 20 and 50%
3 After the treatments, the seedling base cuttings were rinsed with DI water and transferred to clean vials with glass beads containing 60 mL of DI water for 8 days. Two cuttings were placed in each vial and two vials were used for each treatment. The vials are left at 28±3° C. ambient air temperature and under lighting at 135 μmol photons m^−2 s^−1 in a 16-h day/8-h night cycle. The humidity is maintained over 60%.
4. After 8 days, the number of roots per hypocotyl was recorded. The plant quality and stem length were also evaluated. The data collected was organized and analyzed using Microsoft Excel
The plant growth and rooting response of each treatment were recorded after 8 days. The rooting response was evaluated based on number of roots developed per cutting. The average number of roots of three cuttings per treatment was used to determine the effectiveness of the treatments. Plant quality and stem length were also recorded. […] The plants with higher rooting response were found at 2% with duckweed treatment with 67 roots. Whereas Product (1) “K” at 20% dilution stimulated root production with 46 roots and Product (2) “M” at 2% dilution with 32 roots. A decline of rooting stimulation was found at 50% dilution for all evaluated products (FIG. 35 & FIG. 36) that coincides with previous research literature for brown kelp extract products. […]

| pH | SMILES | stem growth, length | concentration with the higher number of roots developed | root formation, IBA compared with IAA (in vivo) |
| --- | --- | --- | --- | --- |
| 6.92 | O=C(O)Cc1c[nH]c2ccccc12 [IAA, indole-3-acetic acid] | 15 cm | 30 mg/L | – |
| 6.53 | O=C(O)CCCc1c[nH]c2ccccc12 [IBA, indole-3-butyric acid] | 15 cm | 30 mg/L | stimulated more roots in all concentrated treatments than IAA; also recorded: more effective than indol-3-acetic acid (IAA) in root development |

Reference: patent US20250072433A1, “ORGANIC CONCENTRATED VITAMINE-PHYTOHORMONE WITH NATURAL BIO-STIMULANT PROPERTIES AS FERTILIZER CONCENTRATED EXTRACT OF DUCKWEED ARACEA FAMILY OF PLANTS FORMALY KNOWN AS LEMNACEAE SINGLE OR COMBINED SPECIES THAT CAN INCLUDE ALSO COMPOUNDED MULTIPLE FORMULATED AQUATIC PLANTS EXTRACTS TO NATURALY …” (priority 2021, published 2025)
